The values that follow are results of earlier work, collected in patent publication US9855513B2, “Method for producing concentrated aqueous solution of organic compound” (Kao Corporation, priority 2012, dated 2018).

The conditions of this data set: in a water of 100 g at 25° C.

For the molecule `OCC(O)CO` [glycerol], the solubility degree entry is given as “∞”.
